Consider 15 compounds from patent publication US8598179B2, “Pyrazole-carboxamide derivatives as P2Y12 antagonists” (Sanofi, priority 2007, dated 2013).

For one assay, the target named is T1, human P2Y12 receptor (Homo sapiens, UniProt Q9H244).
T1 construct: expressed in transfected cells; host or cells: CHO cells (membrane preparation)
The assay can be described thus: Human P2Y12 recombinant cell membrane binding assay. As to conditions: competition against 33P 2MeS-ADP; CHO cell membranes with recombinant human P2Y12 receptor. On the procedure: The ability of the compounds of the formula I to inhibit the P2Y12 receptor can be assessed by determining the concentration of the compound of the formula I that binds to the human P2Y12 Recombinant Cell Membrane Binding Assay with 33P 2MeS-ADP.
Human P2Y12 Recombinant Cell Membrane Binding Assay
The ability of a test compound to bind to the P2Y12 receptor was evaluated in a recombinant cell membrane binding assay. In this competitive binding assay, the test compound competed against a radiolabeled agonist for binding to the P2Y12 receptor, expressed on the cell membrane. Inhibition of binding of the labeled material was measured and correlated to the amount and potency of the test compound. This binding assay is a modification of the procedure described by Takasaki, J. et. al, Mol. Pharmacol., 2001, Vol. 60, pg. 432.
As source of P2Y12, a membrane preparation was prepared from Chinese Hamster Ovary (CHO) cells with recombinant expression of the human P2Y12 receptor according to standard procedures.
To a 96-well microtiterplate the following were added: a) 24 μl of assay buffer (10 mM HEPES, 138 mM NaCl, […] KCl, 12 mM NaHCO3, 1 mM EDTA-Na, 0.1% BSA, pH 7.4) b) 1 μL compound in DMSO c) 50 μL P2Y12 CHO membrane (20 μg/ml) and after 15 min at RT d) 25 μL of 1.61 nM 33P 2MeS-ADP (Perkin Elmer NEN custom synthesis, specific activity ˜2100Ci/mmol) made in assay buffer.
After 20 min incubation at RT samples were transferred to 96-well microtiter filterplates (Millipore HTS GF/B), pre-wetted for 20 min with 300 μL of stop buffer (10 mM HEPES, 138 mM NaCl pH 7.4) and then filtered through completely with a Millipore plate vacuum. Next, wells were washed four times with 400 μl/well of stop buffer on a plate vacuum. The plate was disassembled and allowed to air dry overnight with the filter side up over night. The filter plates were snapped into adapter plates and 0.1 mL of Microscint 20 Scintillation Fluid (Perkin Elmer #6013621) was added to each well. The top of the filterplate was sealed with plastic plate covers. The sealed filterplate were incubated 2 hours at RT. A Microbeta Scintillation Counter was used to measure counts. The binding of compound is expressed as a % inhibition of specific binding, defined by subtraction of the background with 1 mM ADP.
Compounds were diluted as 10 mM DMSO stocks and tested in a four-point, five-fold dilution series run in triplicate beginning at 10 μM, final concentration. Data were analyzed using a four-parameter curve fit with a fixed minimum and maximum experimentally defined as the average positive and negative controls on each plate. The IC50 data of the above described human P2Y12 recombinant cell membrane binding assay for exemplary compounds of the present invention are shown in table 1.

Assay [1] deals with human platelet rich plasma (ADP-induced platelet aggregation). The assay can be described thus: Inhibition of human platelet aggregation, 96-well assay. The assay is classed as cell-based. As to conditions: 20 min, aggregation induced by ADP, 96-well plates, AUC of absorbance over 20 minutes. The method, then: Inhibition of Human Platelet Aggregation
Alternatively to a binding assay which measures a compound's ability to bind to the P2Y12 receptor, the effect on cellular function was also determined. This ability of the compound was evaluated in two platelet aggregation assays: in 96-well plates and with the “Born”-method using single cuvettes.
Whole blood was collected from healthy volunteers using 20 ml syringes containing 2 ml of ACD-A Aqua-Citrat-Dextrose-A, Fresenius). The anticoagulated whole blood was transferred into 15 ml polypropylene conical tubes (10 ml per tube). The tubes were centrifuged for 15 minutes at 150×g at RT without using the centrifuge brake. This procedure leads to a pellet of cellular components and a supernatant of platelet rich plasma (PRP). The PRP layer was collected from each tube and pooled for each donor. To avoid carry over of cellular components following centrifugation, approximately 5 ml of PRP was left in the tube. The platelet concentration was determined using a Coulter Counter.
The 15 ml tubes containing the pellet of cellular components were centrifuged again for 10 minutes at 1940×g. This pelleted out most particulate blood constituents remaining, leaving a layer of Platelet Poor Plasma (PPP). The PPP was collected for each donor. The PRP layer, previously set aside, was diluted with PPP to a final concentration of approximately 3×E8 platelets/ml with the PPP.
The human platelet aggregation assay is performed in 96-well plates using a microtiter plate reader (SpectraMax Plus 384 with SoftMax Pro software from Molecular Devices). In the plate 15 μl of test compound at 10× final concentration in NaCl is mixed with 120 μl fresh PRP and incubated for 5 minutes. Following that incubation period, 15 μl of 40 μM ADP is added to the reaction mix. This addition of ADP is sufficient to induce aggregation in the absence of an inhibitor. The plates are then transferred to the microplate reader and aggregation is measured over 20 minutes. The instrument settings include: Absorbance at 650 nm, run time 20 minutes with readings in 1-minute intervals and 50 seconds shaking between readings all performed at 37° C. Results of the assay are expressed as % inhibition, and are calculated using area under curve (AUC) of the absorbance over 20 minutes.
The IC50 data of the above described platelet aggregation 96-well assay using human platelet rich plasma for exemplary compounds of the present invention are shown in table 2.

What is called IC50 is the concentration needed to halve the response being measured.

T1 sequence (Q9H244 whole entry): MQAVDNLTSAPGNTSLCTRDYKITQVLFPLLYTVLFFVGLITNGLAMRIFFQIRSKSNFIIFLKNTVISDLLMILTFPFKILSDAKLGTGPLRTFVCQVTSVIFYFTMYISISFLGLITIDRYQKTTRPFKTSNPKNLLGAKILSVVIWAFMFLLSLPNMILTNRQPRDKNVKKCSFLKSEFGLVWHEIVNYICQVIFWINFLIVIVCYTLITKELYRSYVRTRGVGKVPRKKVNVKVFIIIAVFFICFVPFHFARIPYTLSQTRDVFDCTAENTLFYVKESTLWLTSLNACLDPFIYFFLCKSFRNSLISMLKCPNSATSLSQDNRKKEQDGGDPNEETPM

On to `CCOC(=O)N1CCN(C(=O)[C@H](CCC(=O)O)NC(=O)c2cc(OC3(C(=O)O)CCC3)n(-c3ccccc3)n2)CC1` [Example 7, 4-((S)-4-Carboxy-2-{[5-(1-carboxy-cyclobutoxy)-1-phenyl-1H-pyrazole-3-carbonyl]-amino}-butyryl)-piperazine-1-carboxylic acid ethyl ester], for which the IC50 on human P2Y12 receptor worked out at 601 nM.

With `CCOC(=O)N1CCN(C(=O)[C@H](CC(C(=O)O)C(=O)O)NC(=O)c2cc(OC3(C(=O)OCC)CCC3)n(-c3ccccc3)n2)CC1` [Example 61, 2-[(S)-2-{[5-(1-Ethoxycarbonyl-cyclobutoxy)-1-phenyl-1H-pyrazole-3-carbonyl]-amino}-3-(4-ethoxycarbonyl-piperazin-1-yl)-3-oxo-propyl]-malonic acid], the IC50 at human P2Y12 receptor came out at 379 nM.

The compound `CCOC(=O)N1CCN(C(=O)[C@H](CCC(=O)O)NC(=O)c2cc(OCC(=O)C3CC3)n(-c3ccccc3)n2)CC1` [Example 96, 4-((S)-4-Carboxy-2-{[5-(2-cyclopropyl-2-oxo-ethoxy)-1-phenyl-1H-pyrazole-3-carbonyl]-amino}-butyryl)-piperazine-1-carboxylic acid ethyl ester] returned an IC50 in assay [1] of 2600 nM.

For `COc1cc(OC)cc(N2CCN(C(=O)[C@H](CCC(=O)O)NC(=O)c3cc(OCC(=O)C(C)(C)C)n(-c4ccccc4)n3)CC2)c1` [Example 105, (S)-5-[4-(3,5-Dimethoxy-phenyl)-piperazin-1-yl]-4-{[5-(3,3-dimethyl-2-oxo-butoxy)-1-phenyl-1H-pyrazole-3-carbonyl]-amino}-5-oxo-pentanoic acid], the IC50 on human P2Y12 receptor came out at 1400 nM.

On to `Cc1cc(COc2cc(C(=O)N[C@@H](CCC(=O)O)C(=O)N3CCN(c4cccc(C(F)(F)F)c4)CC3)nn2-c2ccccc2)no1` [Example 120, (S)-4-{[5-(5-Methyl-isoxazol-3-ylmethoxy)-1-phenyl-1H-pyrazole-3-carbonyl]-amino}-5-oxo-5-[4-(3-trifluoromethyl-phenyl)-piperazin-1-yl]-pentanoic acid], for which the IC50 on human P2Y12 receptor was found to be 3500 nM.

With `CC(C)(C)C(=O)COc1cc(C(=O)N[C@@H](CCC(=O)O)C(=O)N2CCC(C(=O)c3cccc(Cl)c3)CC2)nn1-c1ccccc1` [Example 127, (S)-5-[4-(3-Chloro-benzoyl)-piperidin-1-yl]-4-{[5-(3,3-dimethyl-2-oxo-butoxy)-1-phenyl-1H-pyrazole-3-carbonyl]-amino}-5-oxo-pentanoic acid], the IC50 at human P2Y12 receptor is 2800 nM.

`CCOC(=O)N1CCN(C(=O)[C@H](CNC(=O)C(=O)O)NC(=O)c2cc(OCC(=O)C(C)(C)C)n(-c3ccccc3)n2)CC1` [Example 134, 4-[(S)-2-{[5-(3,3-Dimethyl-2-oxo-butoxy)-1-phenyl-1H-pyrazole-3-carbonyl]-amino}-3-(oxalyl-amino)-propionyl]-piperazine-1-carboxylic acid ethyl ester]: the IC50 on human P2Y12 receptor stood at 501 nM.

`CCOC(=O)N1CCN(C(=O)[C@H](CNc2c(O)c(=O)c2=O)NC(=O)c2cc(OCC(=O)C(C)(C)C)n(-c3ccccc3)n2)CC1` [Example 136, 4-[(S)-2-{[5-(3,3-Dimethyl-2-oxo-butoxy)-1-phenyl-1H-pyrazole-3-carbonyl]-amino}-3-(2-hydroxy-3,4-dioxo-cyclobut-1-enylamino)-propionyl]-piperazine-1-carboxylic acid ethyl ester]: at human P2Y12 receptor, the IC50 amounted to 3500 nM.

Take `CCOC(=O)N1CCN(C(=O)[C@H](CCC(=O)O)NC(=O)c2cc(OCC(=O)N[C@@H](C)C(=O)O)n(-c3ccccc3)n2)CC1` [Example 138, 4-[(S)-4-Carboxy-2-({5-[((S)-1-carboxy-ethylcarbamoyl)-methoxy]-1-phenyl-1H-pyrazole-3-carbonyl}-amino)-butyryl]-piperazine-1-carboxylic acid ethyl ester]: in assay [1], the IC50 stood at 1480 nM.

`CCOC(=O)N1CCN(C(=O)[C@H](CCC(=O)O)NC(=O)c2cc(OCC(=O)N[C@H](C)C(=O)O)n(-c3ccccc3)n2)CC1` [Example 139, 4-[(S)-4-Carboxy-2-({5-[((R)-1-carboxy-ethylcarbamoyl)-methoxy]-1-phenyl-1H-pyrazole-3-carbonyl}-amino)-butyryl]-piperazine-1-carboxylic acid ethyl ester] came in with an IC50 in assay [1] of 1850 nM.

With `CCCCOC(=O)N1CCN(C(=O)[C@H](CCC(=O)O)NC(=O)c2cc(OCC(=O)C(C)(C)C)n(-c3ccccc3)n2)CC1` [Example 147, 4-((S)-4-Carboxy-2-{[5-(3,3-dimethyl-2-oxo-butoxy)-1-phenyl-1H-pyrazole-3-carbonyl]-amino}-butyryl)-piperazine-1-carboxylic acid butyl ester], the IC50 on human P2Y12 receptor stood at 95 nM.

Regarding `CC(C)(C)C(=O)COc1cc(C(=O)N[C@@H](CCC(=O)O)C(=O)N2CCN(C(=O)OC3CCC3)CC2)nn1-c1ccccc1` [Example 158, 4-((S)-4-Carboxy-2-{[5-(3,3-dimethyl-2-oxo-butoxy)-1-phenyl-1H-pyrazole-3-carbonyl]-amino}-butyryl)-piperazine-1-carboxylic acid cyclobutyl ester], the half-maximal inhibitory concentration (IC50) on human P2Y12 receptor turned out to be 266 nM.

On to `CCOC(=O)N1CCN(C(=O)[C@H](CC(=O)O)NC(=O)c2cc(OCC(=O)C(C)(C)C)n(-c3ccccc3)n2)CC1` [Example 163, 4-((S)-3-Carboxy-2-{[5-(3,3-dimethyl-2-oxo-butoxy)-1-phenyl-1H-pyrazole-3-carbonyl]-amino}-propionyl)-piperazine-1-carboxylic acid ethyl ester], for which the IC50 at human P2Y12 receptor was 200 nM.

Take `CCOC(=O)N1CCN(C(=O)[C@H](CC(=O)NS(C)(=O)=O)NC(=O)c2cc(OCC(=O)C(C)(C)C)n(-c3ccccc3)n2)CC1` [Example 164, 4-((S)-2-{[5-(3,3-Dimethyl-2-oxo-butoxy)-1-phenyl-1H-pyrazole-3-carbonyl]-amino}-4-methanesulfonylamino-4-oxo-butyryl)-piperazine-1-carboxylic acid ethyl ester]: the IC50 on human P2Y12 receptor is 1600 nM.

Turning to `CCOC(=O)N1CCN(C(=O)[C@H](CCC(=O)O)NC(=O)c2cc(OCC(=O)NC3(C(=O)NC4CCC4)CCC3)n(-c3ccccc3)n2)CC1` [Example 167, 4-{(S)-4-Carboxy-2-[(5-{[1-(cyclobutyl-carbamoyl)-cyclobutylcarbamoyl]-methoxy}-1-phenyl-1H-pyrazole-3-carbonyl)-amino]-butyryl}-piperazine-1-carboxylic acid ethyl ester], it took 2190 nM to reach half-maximal inhibition in assay [1] (IC50).
